“And” between values parts separate entries of the source, which are not always exact repeats. Equal entries are not always repeated. Toxic doses and inconclusive results are not listed.
Tested on: BDF1 mice, L1210 Methyl-GAG-resistant leukemia, survival T/C
Test: NCI In Vivo Anticancer Drug Screen. Data for tumor model L1210 Leukemia resistant to Methyl-GAG; NSC 32946 (subcutaneous) in B6D2F1 (BDF1) mice
Details: endpoint: mean survival time, schedule: Q01DX Z (ip), higher = longer survival
Procedure: The antitumor activity of compounds was measured in mice bearing transplantable tumors. Survival or tumor size were measured and the results are expressed as the measurement made in the treated group (T) divided by the measurement made in the vehicle treated control group (C). The tumor model used in this assay is L1210 Leukemia resistant to Methyl-GAG; NSC 32946 (subcutaneous) in B6D2F1 (BDF1) mice

[1] = dose: 25.0 mg/kg/injection, vehicle: carboxymethylcellulose (CMC)
[2] = dose: 50.0 mg/kg/injection, vehicle: carboxymethylcellulose (CMC)
[3] = dose: 100.0 mg/kg/injection, vehicle: carboxymethylcellulose (CMC)
[4] = dose: 200.0 mg/kg/injection, vehicle: carboxymethylcellulose (CMC)
[5] = dose: 400.0 mg/kg/injection, vehicle: carboxymethylcellulose (CMC)
[6] = dose: 125.0 mg/kg/injection, vehicle: saline
[7] = dose: 250.0 mg/kg/injection, vehicle: saline

For `CS(=O)(=O)OCC(O)C(O)COS(C)(=O)=O` (configuration not stated), the T/C (dose: 99.0 mg/kg/injection, vehicle: saline) was 101 % of control, the T/C (dose: 188.0 mg/kg/injection, vehicle: saline) was 101 % of control and the T/C (dose: 375.0 mg/kg/injection, vehicle: saline) was 101 % of control. The T/C (dose: 750.0 mg/kg/injection, vehicle: saline) was 117 % of control and 120 % of control, the T/C (dose: 1500.0 mg/kg/injection, vehicle: saline) was 109 % of control and 120 % of control and the T/C (dose: 3000.0 mg/kg/injection, vehicle: saline) was 112 % of control.

With `CC(=O)Nc1ccc2nc3ccc(NC(C)=O)cc3[n+](-c3ccccc3)c2c1` the T/C (dose: 12.5 mg/kg/injection, vehicle: carboxymethylcellulose (CMC)) was 97 % of control, the T/C [1] was 97 % of control and the T/C [2] was 113 % of control. For the same molecule, the T/C [3] was 98 % of control, the T/C [4] was 88 % of control and the T/C [5] was 93 % of control.

In the case of `N=[N+]=CC(=O)OCC(N)C(=O)O` (configuration not stated), the T/C (dose: 1.56 mg/kg/injection, vehicle: saline) is reported as 104 % of control, the T/C (dose: 3.12 mg/kg/injection, vehicle: saline) is reported as 104 % of control and the T/C (dose: 4.7 mg/kg/injection, vehicle: saline) is reported as 100 % of control. The T/C (dose: 12.5 mg/kg/injection, vehicle: saline) was 156 % of control and 150 % of control, the T/C (dose: 18.8 mg/kg/injection, vehicle: saline) was 104 % of control and the T/C (dose: 25.0 mg/kg/injection, vehicle: saline) was 116 % of control.

In the case of `C[C@@H]1C[C@H]2CC[C@H](O2)[C@H](C)C(=O)O[C@@H](C)C[C@@H]2CC[C@@H](O2)[C@@H](C)C(=O)O[C@H](C)C[C@H]2CC[C@H](O2)[C@H](C)C(=O)O[C@@H](C)C[C@@H]2CC[C@@H](O2)[C@@H](C)C(=O)O1`, the T/C [1] is reported as 97 % of control, the T/C [2] is reported as 91 % of control and the T/C [3] is reported as 91 % of control. The T/C [4] was 97 % of control.

`O=c1[nH]c(=O)n(C2CC(O)C(CO)O2)cc1Br` (configuration not stated) was tested, and the T/C (dose: 31.0 mg/kg/injection, vehicle: carboxymethylcellulose (CMC)) was 95 % of control, the T/C (dose: 63.0 mg/kg/injection, vehicle: carboxymethylcellulose (CMC)) was 92 % of control and the T/C (dose: 125.0 mg/kg/injection, vehicle: carboxymethylcellulose (CMC)) was 113 % of control. For the same molecule, the T/C (dose: 500.0 mg/kg/injection, vehicle: carboxymethylcellulose (CMC)) was 118 % of control and the T/C (dose: 1000.0 mg/kg/injection, vehicle: carboxymethylcellulose (CMC)) was 120 % of control.

In the case of `Nc1nc(N)c2nc(CNc3ccc(C(=O)NC(CCC(=O)O)C(=O)O)cc3)cnc2n1` (configuration not stated), the T/C (dose: 2.0 micrograms/kg/injection, vehicle: alkali diluted with saline) is reported as 98 % of control, the T/C (dose: 4.0 micrograms/kg/injection, vehicle: alkali diluted with saline) is reported as 100 % of control and the T/C (dose: 16.0 micrograms/kg/injection, vehicle: alkali diluted with saline) is reported as 110 % of control. The T/C (dose: 31.0 micrograms/kg/injection, vehicle: alkali diluted with saline) was 88 % of control, the T/C (dose: 63.0 micrograms/kg/injection, vehicle: alkali diluted with saline) was 187 % of control and the T/C (dose: 125.0 micrograms/kg/injection, vehicle: alkali diluted with saline) was 94 % of control.

`O=C1C(NC(=O)C2CCCCC2)=C(N2CC2)C(=O)C(NC(=O)C2CCCCC2)=C1N1CC1` was tested, and the T/C [1] was 100 % of control, the T/C [2] was 96 % of control and the T/C [3] was 114 % of control. For the same molecule, the T/C [4] was 108 % of control and 118 % of control, the T/C [5] was 120 % of control and the T/C (dose: 800.0 mg/kg/injection, vehicle: carboxymethylcellulose (CMC)) was 104 % of control.

In the case of `CCOC(N)=O`, the T/C [6] is reported as 99 % of control, the T/C [7] is reported as 89 % of control and the T/C (dose: 500.0 mg/kg/injection, vehicle: saline) is reported as 101 % of control. For the same molecule, the T/C (dose: 1000.0 mg/kg/injection, vehicle: saline) was 90 % of control.

In the case of `C[C@H](N)C(=O)N[C@@H]1[C@H]2C(=C(O)C[C@@H](O)[C@@H]2O)C(=O)O[C@@H]1C`, the T/C (dose: 31.25 mg/kg/injection, vehicle: saline) is reported as 96 % of control, the T/C [6] is reported as 102 % of control and the T/C [7] is reported as 116 % of control. For the same molecule, the T/C (dose: 2000.0 mg/kg/injection, vehicle: saline) was 96 % of control.

Source: PubChem BioAssay AID306 (DTP/NCI, 2004)
